# From US20240374797A1, “SYSTEM AND METHOD FOR EXTRACORPOREAL BLOOD TREATMENT” (Gambro Lundia AB, priority 2020, published 2024)
# Tests used:
# Format in all cases: cell-based, human
# [1] = test system: RCC4 (renal cell carcinoma); test: Study 2: CellTiter-Glo cell viability, DMEM without sodium pyruvate; conditions: increase in BOHB concentration (0, 4, 12 mM), 3 d, FIG. 7
# Method: (§1) Cell lines established from human colon carcinoma (HCT15, NCI-H508 and COLO205), renal cell carcinoma (769-P, 786-O and RCC4) and glioblastoma (LN-18, A-172 and U-118 MG) were selected for the analysis. All cell lines were obtained from American Type Culture Collection (ATCC, LGC standards, UK) except for RCC4 and HCT15 that was purchased from Sigma-Aldrich (Merck, Germany). In addition, primary human renal cell carcinoma (RCC) cells isolated from patient nephrectomies were included in the study. […]
# (§2) Optimal seeding density was determined for each cell line in 96 well plates according to the “Protocol for optimizing cell seeding densities to ensure Log-phase growth”. […] Cover the plate. • Incubate the plate overnight at 37° C., 5% CO2. • Add 50 μL of fresh media to the plate wells to achieve a final volume of 200 μL and incubate for 72 h at 37° C., 5% CO2. • Measure viability using Cell Titer Glo assay according to manufacturer's protocol. • Plot log cell number against luminescence intensity to identify the concentration of cells at which log growth is achieved.
# (§3) CellTiter-Glo Luminescent cell viability assay (Promega) was used as a readout of viability.
# (§4) For each cell line, optimal number of cells as determined above were seeded into 96-well plates on day 0. […]
# A172 (glioblastoma) = test: as above; conditions: increase in BOHB concentration (0, 4, 12 mM), 3 d, FIG. 7
# Method: as §1, §2, §3, §4
# glioma cell line U118MG = test: Example 2: CellTiter-Glo readout of cell numbers, ketones added to Medium A-C; conditions: for growth, repeat experiments 2-6 (inconsistent results): ketone added separately (16 mM BOHB or 8 mM Acac), FIG. 15; for number of cells compared to 8 mM LiCl control: 8 mM Acac
# Method: (§5) To study the effect of a nutrient restricted ketogenic environment on cancer cell growth in vitro, three different cell culture media were formulated. Medium A was full RPMI1640 medium that the cell lines routinely are cultured in. Medium B was used as an approximation of the conditions found in normal human serum. The levels of glucose, glutamine, serine, glycine and arginine were adjusted to match normal physiological levels found in human serum. These nutrients were selected based on their reported use as energy source and effects on cancer cell metabolic state. Medium C was used to emulate the ketogenic nutrient restricted Cancer Dialysis condition. Here, the levels of the selected nutrients were reduced to half of the physiological levels in Medium B, and the ketone body BOHB was added.
# (§6) Human cancer cell lines are routinely established and cultured at atmospheric oxygen levels (21% O2), yet, the physiological oxygen levels in tissue is considerably lower and varies from 3-13% [Ward, Biochim Biophys Acta 2008; 1777:1-14. Within the tumor microenvironment, the fast growth rate of cancer cells combined with an often malformed and defective vasculature often results in hypoxic regions with oxygen levels ranging from 0-5%. Given the effects of oxygen levels on energy metabolism [Xie et al., J Biol Chem 2017; 292:16825-16832], and to further mimic the physiological conditions in vivo, the growth of the cancer cell lines in Medium A, B and C was studied at both ambient, 21% O2, and at the more physiological 5% O2.
# (§7) Cells were maintained in RPMI-1640 medium (31870-025 GIBCO) with the addition of 10% serum, 200 mM L-glutamine and 1% penicillin-streptomycin (PEST) in humidified chambers at 37° C. and 5% CO2. For hypoxic conditions (5% O2), cells were maintained in a Galaxy 14 S CO2 incubator (Eppendorf) where N2 was used to adjust the O2 level to 5%.
# (§8) Medium A: RPMI1640 (31870-025, GIBCO) with the addition of 1% PEST, 200 mM L-glutamine and 10% dialyzed serum. Dialyzed serum was used to reduce the amounts of small molecules such as amino acids.
# (§9) Medium B and C were prepared from RPMI1640 modified medium powder without L-glutamine, glucose and amino acids (R9010-01, US Biological Life Sciences). For 1 L medium, 7.4 g powder was dissolved in 900 ml sterile water without heating and 2 g sodium bicarbonate was added. Amino acids listed in Table 5 were added to the same concentration as in full RPMI1640 medium (Table 5). After all additions, the medium was sterilized by filtering through 0.22 um membranes and divided into two bottles.
# (§10) In Medium B, to mimic physiological conditions, the levels of glutamine, serine, glycine, arginine and glucose were set to the median of measured levels in human serum, based on data from the Mayo Clinic Laboratories (https://www.mayocliniclabs.com/test-catalog/Clinical+and+Interpretive/9265).
# (§11) To model Cancer Dialysis conditions in Medium C, the levels of these nutrients were reduced to 50% of the physiological levels. As for Medium A, 1% PEST and 10% dialyzed serum were added to Medium B and C. Sodium pyruvate, that is a common addition in cell culture medium, was not present in any of the used media.
# (§12) Stock solutions of DL-β-Hydroxybutyric acid sodium salt (H6501, Sigma Aldrich) and Lithium Acetoacetate (A8509, Sigma Aldrich) were prepared in water, sterile filtered, aliquoted and stored at −20° C. Lithium Chloride (L7026, Sigma Aldrich) was used as a control for the addition of Lithium in the Li-Acac.
# (§13) CellTiter-Glo Luminescent cell viability assay (Promega) was used as a readout of cell numbers according to the manufacturers' instructions. In experiments shown in FIG. 12-13, double plates were seeded and treated. One set of plates was used for collection of medium for lactate measurement (see below) and the CellTiterGlo-assay. The other set of plates was frozen at −80° C. at the end of the experiment. […]
# glioma cell line A172 = test: as above; conditions: for growth, repeat experiments 2-6 (inconsistent results): ketone added separately (16 mM BOHB or 8 mM Acac), FIG. 14; for number of cells compared to 8 mM LiCl control: 8 mM Acac
# Method: as §5, §6, §7, §8, §9, §10, §11, §12, §13
# [2] = test system: RCC4 renal carcinoma cell line; test: Example 2: CellTiter-Glo readout of cell numbers in Medium A-C; conditions: high levels of BOHB or combination of BOHB and Acac, FIG. 16
# Method: as §5, with “Here, the levels of the selected nutrients were reduced to half of the physiological levels in Medium B, and the ketone body BOHB was added.” left out
# All cell lines were purchased from ATCC (ATCC, LGC standards) except for RCC4 that was from Sigma-Aldrich (Merck). […] Optimal seeding density was determined for each cell line in 96-well plates cultured for 3 days in standard cell culture medium. […]
# In Medium B, to mimic physiological conditions, the levels of glutamine, serine, glycine, arginine and glucose were set to the median of measured levels in human serum, based on data from the Mayo Clinic Laboratories (https://www.mayocliniclabs.com/test-catalog/Clinical+and+Interpretive/9265). […]
# CellTiter-Glo Luminescent cell viability assay (Promega) was used as a readout of cell numbers according to the manufacturers' instructions. […]
# [3] = Medium C, 16 mM BOHB, at both 21 and 5% O2
# [4] = Medium A, both normoxia and hypoxia
Compound,proliferation of cells [1],proliferation of cells (A172 (glioblastoma)),"growth inhibitory effect (glioma cell line U118MG; Medium A, 16 mM BOHB alone, both normoxia and hypoxia, FIG. 13)","number of cells, % compared to C-medium without BOHB (glioma cell line U118MG; [3])","growth, repeat experiments 2-6 (inconsistent results) (glioma cell line U118MG; Medium C)","growth inhibitory effect (glioma cell line A172; Medium A, 16 mM BOHB alone, both normoxia and hypoxia, FIG. 12)","number of cells, % of the amount in Medium B without BOHB (glioma cell line A172; Medium B, hypoxic (5% O2), BOHB added (16 mM))","number of cells, % compared to C-medium without BOHB (glioma cell line A172; [3])","growth, repeat experiments 2-6 (inconsistent results) (glioma cell line A172; Medium C)",increased sensitivity to ketones in nutrient restricted Medium C [2],number of cells compared to 8 mM LiCl control (glioma cell line U118MG; [4]),"number of cells compared to 8 mM LiCl control (glioma cell line U118MG; Medium B, 5% O2)","number of cells compared to 8 mM LiCl control (glioma cell line U118MG; Medium B, 21% O2)","amounts of cells compared to 8 mM LiCl control (glioma cell line U118MG; Medium C, 8 mM Acac alone)",number of cells compared to 8 mM LiCl control (glioma cell line A172; [4]),"number of cells compared to 8 mM LiCl control (glioma cell line A172; Medium B, 5% O2)","number of cells compared to 8 mM LiCl control (glioma cell line A172; Medium B, 21% O2)","amounts of cells compared to 8 mM LiCl control (glioma cell line A172; Medium C, 8 mM Acac alone)"
"CC(O)CC(=O)[O-].[Na+] (racemic) [BOHB, DL-β-Hydroxybutyric acid sodium salt]",suppresses the proliferation of cells,suppresses the proliferation of cells,no growth inhibitory effect,around 30%,trend of reduced growth,no growth inhibitory effect,approximately 70%,around 30%,trend of reduced growth,not found,–,–,–,–,–,–,–,–
"CC(=O)CC(=O)[O-].[Li+] [Acac, Lithium Acetoacetate]",–,–,–,–,trend of reduced growth,–,–,–,trend of reduced growth,–,did not reduce the number of cells further,only at 21% O2,reduced the number of cells significantly,did not significantly reduce the amounts of cells,did not reduce the number of cells further,only at 21% O2,reduced the number of cells significantly,did not significantly reduce the amounts of cells
